How the values were obtained:
Primary Neurons = assay: HCS neurite outgrowth assay (High Content Screening with Primary Neurons); type: cell-based; conditions: Primary neuron
[1] = tested on: neurons from hippocampi of E18 rat embryos; assay: Neurite growth length (% NTL) in cultured E18 rat hippocampal neurons, 9-point dose response, 48 hours; type: cell-based; conditions: Rattus norvegicus, Neuron, 48 h; for activity at 0.078 µM: 78 nM; for activity at 0.156 µM: 156 nM; for activity at 0.312 µM: 312 nM; for activity at 0.625 µM: 625 nM
Protocol: PRE-COATING CULTURE PLATES: On the day before the experiment, 96-well plates were pre-coated by plating 50 μl of Poly-D-lysine solution (PDL, 0.5 mg/mL) in each well. The next morning, the plates were washed four or five times with HBSS or PBS (150 μl/rinse), then left in buffer until cell plating
PREPARING THE CELLS: A timed pregnant rat carrying E18 embryos was euthanized using an IACUC approved method. In a laminar flow hood, the embryos were removed and placed in a petri dish containing Hank's Balanced Salt Solution (HBSS) with 20 mM HEPES, pH 7.3. Pup brains were dissected (see Meberg et al., 2003) and hippocampi were collected in 15 mL a conical tube containing Hibernate E with SM1 (2% v/v).
Dissociation media was prepared by combining 4.5 mL of Hibernate E (without SM1) with 0.5 mL of trypsin and 100 μl of DNAse solution. The medium over the hippocampi was carefully removed and replaced with dissociation solution, then incubated at 37° C. for 15-20 minutes, occasionally swirling the tube.
Using flame polished cotton plugged Pasteur pipettes, the dissociation media was removed, and then 5 mL of Hibernate E containing SM1 were added. The tube was swirled to thoroughly wash the tissue. The tissue was allowed to settle to the bottom of the tube, and the rinse solution was carefully removed. This step was repeated 5 times to dilute out trypsin and DNAse and remove any debris from lysed cells.
The final rinse media was removed from the tube and 1 pipette-full (1-2 mL) of Hibernate E with SM1 was added. Using the flame-polished Pasteur pipette (pre-wetted with rinse media), the tube was triturated until all cells had dissociated and no visible chunks of tissue remained. Fewer than ten triturations were typically performed. The volume was adjusted to 8-12 mL using Hibernate E containing SM1, the well was mixed and cell concentration was determined.
PLATING: The cells were diluted in culture media (NbActiv4 Cell-culture media) to a final concentration of 10,000 cells/mL. The HBSS was aspirated from PDL coated plates, and 150 μL of cell solution was loaded in the middle 48 wells at 1500 cells per well. Water was loaded in the outer wells to decrease evaporation from edge wells. Cells were allowed to adhere for 2 hours in tissue culture incubator prior to treatment.
TREATMENT: Compounds were diluted to various concentrations to provide 9 dose response concentrations of 20 μM, 10 μM, 5, μM, 2.5 μM, 1.25 μM, 0.625 μM, 0.3125 μM, 0.15625 μM, and 0.078125 μM. The plates were cultured for 48 hours, exposed to the compound at the various dose response concentrations.
FIXING THE CULTURES: The culture medium was removed from the plates and immediately replaced with 100-200 μl of warm (37° C.) 4% paraformaldehyde (PFA) solution in phosphate-buffered saline (PBS). The cells were fixed for 15-20 minutes at room temperature, and then rinsed with PBS (200 μl/well×3).
STAINING AND IMAGING: The PBS was removed and replaced with 100 μl of blocking/permeabilization buffer (PBS, 0.2% fish gelatin, 0.03% Triton X-100, 0.02% NaN3), then incubated overnight at 4° C. To this was added 100 μl of primary antibody solution (mouse anti-Beta III tubulin in blocking buffer) and incubate overnight at 4° C. The wells were rinsed with PBS (200 μl×3), which was then removed and replaced with 100 μl of secondary antibody solution (Goat anti-mouse Alexa 488, 10 μg/ml Hoechst 33342, 0.2% fish gelatin, 0.02% azide, in PBS). The plate was shaken gently on a rotating shaker for 2 hours, then rinsed with PBS (200 μl×5).
The plate was imaged using a Cellomics ArrayScan VTI in 2 different channels for nuclear staining (Hoechst) and cell body/neurite staining (βIII-tubulin). Typically, nine fields per well were imaged with a 5× objective and automatically traced by the Neuronal Profiling Bioapplication. To get reproducible results, at least 200-300 valid neurons were measured per condition. […]

Structure (SMILES) | EC50 (Primary Neurons) | activity at 0.078 µM [1] | activity at 0.156 µM [1] | activity at 0.312 µM [1] | activity at 0.625 µM [1] | activity at 1.25 µM [1] | activity at 2.5 µM [1] | activity at 5 µM [1] | activity at 10 µM [1] | activity at 20 µM [1]
COc1ccc(OC)c(C(=O)c2ccc(C(=O)NCCNC(=O)c3ccncc3)cc2)c1F [Example A26, 4-(2-fluoro-3,6-dimethoxybenzoyl)-N-{2-[(pyridin-4-yl)formamido]ethyl}benzamide] | > 20 µM | 93.3% | 99.2% | 94.2% | 99.3% | 93.5% | 99.9% | 102% | 97.8% | 117%
COc1ccc(O)c(C(=O)c2ccc(C(=O)NCCNC(=O)c3ccncc3)cc2)c1F [Example A27, 4-(2-fluoro-6-hydroxy-3-methoxybenzoyl)-N-{2-[(pyridin-4-yl)formamido]ethyl}benzamide] | 7.9 µM | 103% | 101% | 107% | 118% | 110% | 105% | 117% | 141% | 150%
COc1ccc(OC)c(C(=O)c2ccc(C(=O)O[C@@H]3CN(C)C[C@H]3NC(=O)c3ccncc3)cc2)c1F [Example A28, (3R,4R)-1-methyl-4-(pyridine-4-amido)pyrrolidin-3-yl 4-(2-fluoro-3,6-dimethoxybenzoyl)benzoate] | 4.72 µM | 97.8% | 113% | 103% | 83.7% | 103% | 118% | 133% | 137% | 139%
COc1ccc(OC)c(C(=O)c2ccc(C(=O)O[C@@H]3CCN(C)C[C@H]3NC(=O)c3ccncc3)cc2)c1F [Example A30, (3R,4R)-1-methyl-3-(pyridine-4-amido)piperidin-4-yl 4-(2-fluoro-3,6-dimethoxybenzoyl)benzoate] | 4.92 µM | 93.1% | 89.7% | 90.5% | 83.5% | 93.8% | 94.8% | 103% | 107% | 117%
COc1ccc(O)c(C(=O)c2ccc(C(=O)O[C@@H]3CCNC[C@H]3NC(=O)c3ccncc3)cc2)c1F [Example A31, (3R,4R)-3-(pyridine-4-amido)piperidin-4-yl 4-(2-fluoro-6-hydroxy-3-methoxybenzoyl)benzoate] | 1.15 µM | 122% | 120% | 118% | 115% | 136% | 140% | 151% | 142% | 137%
COc1ccc(OC)c(C(=O)c2ccc(C(=O)N[C@@H]3CN(C)C[C@H]3NC(=O)c3ccncc3)cc2)c1F [Example A33, N-[(3R,4R)-4-[4-(2-fluoro-3,6-dimethoxybenzoyl)benzamido]-1-methylpyrrolidin-3-yl]pyridine-4-carboxamide] | > 20 µM | 108% | 106% | 99.3% | 107% | 115% | 129% | 142% | 159% | 207%
COc1ccc(O)c(C(=O)c2ccc(C(=O)N[C@@H]3CNC[C@H]3NC(=O)c3ccc4c(c3)CC(=O)N4)cc2)c1F [Example A35, N-[(3R,4R)-4-[4-(2-fluoro-6-hydroxy-3-methoxybenzoyl)benzamido]pyrrolidin-3-yl]-2-oxo-2,3-dihydro-1H-indole-5-carboxamide] | 0.163 µM | 91.8% | 90.1% | 86.3% | 89.3% | 86.9% | 95% | 97.2% | 96.7% | 107%

From patent publication US11926613B2, “Kinase inhibitors for the treatment of central and peripheral nervous system disorders” (UNIVERSITY OF MIAMI, priority 2017, dated 2024)
